The values that follow come from ChEMBL document CHEMBL1150546, “Adenosine dialdehyde analogs I: Regioselective synthesis of adenosine monoaldehydes” (Bioorg Med Chem Lett, 1996).

Assay [1] has as its target T1, Adenosylhomocysteinase (Homo sapiens, UniProt P23526). In words: Compound was tested for inhibition of S-adenosyl homocysteine (SAH) hydrolase.
Target sequence in this assay (P23526 whole entry): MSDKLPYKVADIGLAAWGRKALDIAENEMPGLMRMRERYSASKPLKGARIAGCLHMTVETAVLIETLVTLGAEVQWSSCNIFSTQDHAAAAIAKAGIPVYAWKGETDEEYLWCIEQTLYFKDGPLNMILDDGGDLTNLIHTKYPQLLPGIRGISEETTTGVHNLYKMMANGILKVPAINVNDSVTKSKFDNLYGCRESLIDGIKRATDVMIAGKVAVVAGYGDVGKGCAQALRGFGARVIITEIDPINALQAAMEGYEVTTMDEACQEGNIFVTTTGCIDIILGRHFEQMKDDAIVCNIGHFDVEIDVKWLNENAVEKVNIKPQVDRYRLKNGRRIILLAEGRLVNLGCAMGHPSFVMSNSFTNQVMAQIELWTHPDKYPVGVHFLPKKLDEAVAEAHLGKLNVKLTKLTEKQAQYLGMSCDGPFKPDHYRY
A further assay concerns L929. In words: cells. The following applies: Mus musculus.
The test system of a further assay is Vero. Kind of assay: cells. Particulars: Chlorocebus sabaeus.
In assay [2] the target is T1, Adenosylhomocysteinase. Kind of assay: Percentage inhibition of S-adenosyl homocysteine (SAH) hydrolase by the compound at a concentration of 10 uM.
Target sequence in this assay (P23526 2-432 limits assumed): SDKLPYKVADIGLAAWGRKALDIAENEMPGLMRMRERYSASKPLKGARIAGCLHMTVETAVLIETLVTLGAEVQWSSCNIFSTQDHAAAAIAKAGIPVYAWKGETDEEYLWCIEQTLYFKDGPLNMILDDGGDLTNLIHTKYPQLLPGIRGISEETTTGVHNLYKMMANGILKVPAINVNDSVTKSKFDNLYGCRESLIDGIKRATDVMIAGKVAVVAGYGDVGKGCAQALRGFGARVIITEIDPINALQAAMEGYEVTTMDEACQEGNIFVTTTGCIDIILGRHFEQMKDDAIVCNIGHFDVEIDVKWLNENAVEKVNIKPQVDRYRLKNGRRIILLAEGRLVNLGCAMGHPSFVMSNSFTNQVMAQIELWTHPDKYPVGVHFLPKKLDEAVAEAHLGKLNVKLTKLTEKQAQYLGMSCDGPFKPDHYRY
Assay [3] addresses T1, Adenosylhomocysteinase. Kind of assay: Compound was tested for competitive inhibition against S-adenosyl homocysteine (SAH) hydrolase.
Target sequence in this assay (P23526 whole entry): as the sequence (P23526 whole entry) above

Each structure is given as a SMILES string. Values after ≈ are worked out from the molar mass of the structure shown.

For orientation: Ki means a measure of affinity in units of concentration, obtained from inhibition or displacement. A high value points to lower affinity. For orientation: IC50 means the concentration at which inhibition is half-maximal. A lower IC50 goes with inhibition by little substance. What is called inhibition is the share of the control response that was lost under treatment.

On to `Nc1ncnc2c1ncn2C(C=O)OC(C=O)CO` (stereo unspecified), for which the affinity on Adenosylhomocysteinase [1], expressed as Ki, was 3.3 nM. Moreover, the values for the IC50 in the assay on L929 and with Vero were 3.1 mg/L (≈ 11.7 µM) and 0.41 mg/L (≈ 1.55 µM), respectively.
Take `Nc1ncnc2c1ncn2[C@@H](C=O)OC(CO)CO`: the inhibition at Adenosylhomocysteinase [2] came out at 4%.
`C=C(C=O)OC(C=O)n1cnc2c(N)ncnc21` (stereo unspecified): the inhibitory constant (Ki) on Adenosylhomocysteinase [1] was determined as 0.5 nM. Moreover, the IC50 stood at 8.9 mg/L (≈ 36 µM) in the assay on L929 and 11.5 mg/L (≈ 46.5 µM) in the assay with Vero.
For `Nc1ncnc2c1ncn2[C@@H](CO)O[C@@H](C=O)CO`, the inhibition against Adenosylhomocysteinase [2] is 89%. Besides, the IC50 with L929 turned out to be 1.9 mg/L (≈ 7.11 µM); in the assay with Vero it was 0.41 mg/L (≈ 1.53 µM). At Adenosylhomocysteinase [3], this molecule showed a Ki of 1900 nM.
